The target of one series is RIPK1 kinase (Homo sapiens (Human), UniProt Q13546). In words: RIPK1 kinase inhibition (ADP-Glo method). It counts as biochemical. Conditions: ATP and MBP substrate, 90 min, read-out: IC50, inhibitory activity against RIPK1 kinase. The source says:
Test Example 2: Inhibitory Activities of Compounds of the Present Disclosure Against RIPK1 Kinase (ADP-Glo Method)
The ADP GLO method was used for detecting the inhibitory activities of the compounds of the present disclosure against RIPK1 kinase. The method is specifically as follows:
• 1) RIPK1 kinase reaction system (containing RIPK1 kinase, MBP, 5× reaction buffer, MnCl2 and DTT) (Promega, VA7592) • 2) ADP-Glo kinase detection kit (containing ADP-Glo reagent and kinase detection reagents) (Promega, V9101) • 3) ATP solution (10 mM) (Thermofisher PV3227) • 4) 96-well small-volume white plate (Cisbio, 66PL96100) • 5) PHERA star microplate reader (BMG labtech)
• a. Reaction buffer: a reaction buffer containing DTT at a final concentration of 50 μM and MnCl2 at a final concentration of 4 mM was prepared using 5× reaction buffer; • b. RIPK1 kinase solution: a RIPK1 kinase solution at a final concentration of 10 ng/μL was prepared using the reaction buffer; • c. […]
• a. […] The plate was read using the PHERA star microplate reader, and relative luminescence unit (RLU) values were recorded. • g. Plotting was performed using the Graphpad software, and the IC50 values of the compounds of the present disclosure were calculated.
Background: ADP-Glo first removes unused ATP, then detects ADP through luciferase.

Another series concerns HT29 cells. In words: Inhibition of necroptosis of HT29 cells (CTG method). The format is cell-based. The following applies: Homo sapiens, HT-29, TZA mixture (TNFα, Z-VAD-FMK, AT-406) 24 h, CellTiter-Glo, read-out: IC50, inhibitory effect on necroptosis of HT29 cells. As for the experimental part: Test Example 1: Inhibitory Effects of Compounds of the Present Disclosure on Necroptosis of HT29 Cells
The CTG method was used for detecting the inhibitory effects of the compounds of the present disclosure on the necroptosis of HT29 cells. The specific procedures are as follows:
HT29 cells were purchased from American Type Culture Collection (ATCC, HTB-38) and cultured with a McCoy's 5A medium (10% FBS) in a 37° C. incubator with 5% carbon dioxide. The cell culture density was maintained at 2×10^4 to 8×10^4 cells/cm^2, and the cells were passaged 2-3 times a week.
• a. Test compounds were dissolved in DMSO to 2 mM. • b. The compounds were 3-fold diluted from an initial concentration of 2 mM to 10 gradient concentrations. • c. All concentrations of compounds were 100-fold diluted with the culture medium for later use.
• a. The cells were counted, and the cell density was adjusted to 1×10^5 cells/mL with a fresh culture medium. • b. The cells were seeded in a 96-well plate at 80 µL/well and cultured at 37° C. overnight. • c. […] After the culture plate was left to stand at room temperature for 0.5 h, a stable luminescence signal was obtained, and then the plate was read using a microplate reader. • g. The IC50 values of the compounds of the present disclosure were calculated by the Graphpad software.

Series [1] can be described thus: Pharmacokinetic evaluation in beagles after intragastric administration. It counts as in vivo. Conditions: both sexes, beagle, dog, plasma, po, 2 mg/kg. The procedure:
Test Example 3: Pharmacokinetic Evaluation of Compound of the Present Disclosure in Dogs
Beagles were used as test animals. Plasma concentrations of the compound of Example 2 at different time points after intragastric administration of Example 2 compound to beagles were determined using an LC/MS/MS method. The pharmacokinetic performance of the compound of the present disclosure was studied in beagles and its pharmacokinetic profile was evaluated.
Eight beagles were provided by Jiangsu Johnbio Biotechnology Co., Ltd., with an equal number of males and females. The production license number was SCXK (Jiangsu) 2018-0005.
A certain amount of the compound of Example 2 was weighed out, and 5% DMSO+30% PG+30% PEG400+35% normal saline were added to prepare a 0.4 mg/mL clear solution.
The compound of Example 2 was administered at a dose of 2 mg/kg with a volume of 5 mL/kg.
The compound of Example 2 was intragastrically administered to the beagles. 0.5 mL of blood samples were collected from the forelimb vein 0 h before administration and 15 min, 30 min, 1.0 h, 2.0 h, 4.0 h, 6.0 h, 8.0 h, 11.0 h, and 24.0 h after administration. The blood samples were placed into EDTA-K2 anticoagulation test tubes and centrifuged at 10,000 rpm for 2 min (4° C.), and plasma was separated within 1 h and stored in a −80° C. refrigerator/dry ice before analysis. Two hours after administration, feeding was resumed.
After the administration of the compound of Example 2, the plasma concentrations of the compound of Example 2 in the beagles were determined: 50 μL of the beagle plasma at each time point after the administration was taken, and 25 μL of internal standard solution ([…] camptothecin) and 450 μL of acetonitrile were added, and the mixture was vortexed and centrifuged at 3700 rpm for 10 min. 0.5 μL of supernatant was collected for LC/MS/MS analysis.

For orientation: IC50 means the concentration that inhibits the measured activity by half. One may read the MRT as a mean duration of stay, worked out from the concentration-time curve.

The structures appear in SMILES notation.

Sequence of RIPK1 kinase (Q13546 1-327): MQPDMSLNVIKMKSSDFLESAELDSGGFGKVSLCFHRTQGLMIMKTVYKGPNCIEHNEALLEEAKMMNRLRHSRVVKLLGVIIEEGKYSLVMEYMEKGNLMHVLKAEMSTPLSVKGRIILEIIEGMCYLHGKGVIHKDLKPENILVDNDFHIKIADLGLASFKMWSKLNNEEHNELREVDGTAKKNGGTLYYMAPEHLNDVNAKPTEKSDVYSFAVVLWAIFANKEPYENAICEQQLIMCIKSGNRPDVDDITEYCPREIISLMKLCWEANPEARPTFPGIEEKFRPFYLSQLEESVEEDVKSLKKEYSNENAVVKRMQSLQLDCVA

For the molecule `Nc1nc2cc(-c3ccc4c(c3)C(=O)N(Cc3cc(OC(F)(F)F)ccc3F)CCO4)ccn2n1` [Example 1, 7-(2-Amino-[1,2,4]triazolo[1,5-a]pyridin-7-yl)-4-(2-fluoro-5-(trifluoromethoxy)benzyl)-3,4-dihydrobenzo[f][1,4]oxazepin-5(2H)-one], the half-maximal inhibitory concentration (IC50) turned out to be 23 nM at RIPK1 kinase and 13.3 nM in the series with HT29 cells.

For the molecule `Nc1nc2cc(-c3ccc4c(c3)C(=O)N(Cc3cc(OC(F)(F)F)ccc3F)CCC4)ccn2n1` [Example 2, 8-(2-Amino-[1,2,4]triazolo[1,5-a]pyridin-7-yl)-2-(2-fluoro-5-(trifluoromethoxy)benzyl)-2,3,4,5-tetrahydro-1H-benzo[c]azepin-1-one], the IC50 was 2.7 nM at RIPK1 kinase and 1.5 nM in the series with HT29 cells. Also, the Vd/F in series [1] (read-out: Apparent volume of distribution Vz/F) was determined as 0.49 L/kg. In series [1] (read-out: Area under curve AUC0-t), the AUC(0-t) is 51600 ng·h/mL. Moreover, the CL/F in series [1] (read-out: Clearance rate CL/F) was found to be 0.48 mL/min/kg. For the same molecule, the half-life in series [1] (read-out: Half-life T1/2 (converted)) is 12.5 h. Moreover, the Cmax in series [1] (read-out: Plasma concentration Cmax) stood at 2940 ng/mL. In addition, the MRT in series [1] (read-out: Residence time MRT) was determined as 19.4 h.
